Data on three compounds can be found in patent US20090221554A1, “METHOD OF TREATING COGNITIVE IMPAIRMENT” (priority 2008, published 2009).

In experiment [1] the test system is cognitive impairment induced by scopolamine. The experiment is described as follows: Passive avoidance task, scopolamine-induced cognitive impairment in mice. Format: in vivo. The procedure:
Male mice of the ICR strain (Charles River Laboratories Japan, Inc.) at the ages of 8 to 9 weeks were used in the experiment. They were housed in a cage in group of 3 or 4 mice, in a room maintained at around 22° C. with a 12-h light/dark cycle. Food and water were available ad libitum. All animal care and treatments were conducted in accordance with the Guidelines for the Care and Use of Laboratory Animals established at the Central Research Laboratory, Zenyaku Kogyo Co., Ltd.
Compound 1 and donepezil were suspended in 1% carboxymethyl cellulose (CMC). […] For the coadministration studies of Compound 1 and donepezil, both drug suspensions were mixed together and this mixed suspension was injected. All drugs were prepared immediately before use and orally administered in a volume of 10 ml/kg.
The passive avoidance apparatus (Neuroscience Inc.) consisted of an illuminated chamber and a larger dark chamber. Two chambers were separated by a guillotine door. Oral administration of compound 1 at doses of 0.0001 mg/kg or 0.001 mg/kg and/or donepezil at doses of 0.01 and 0.1 mg/kg was given 60 min before the acquisition trial. […] Matched control group received vehicle only. In the acquisition trial, each mouse was placed in the illuminated chamber. Immediately after the entry into the dark chamber, the door was closed and inescapable scrambled electric shock (100 V, 0.4 mA, 1.5 sec) was delivered through the floor grid. Twenty-four h later, each mouse was placed in the illuminated chamber for retention trial. The interval between the placement in the illuminated chamber and the entry into the dark chamber was measured as step through latency (maximum 300 sec).
P level of <0.05 was considered indicative of statistical significance for the tests.

The subject of experiment [2] is extracellular level of ACh in the hippocampus. The experiment can be described thus: Extracellular level of acetylcholine (ACh) in the rat hippocampus (microdialysis, HPLC-ECD). Format: in vivo, rats. As to conditions: vs 1% CMC. The procedure:
Food and water were available ad libitum. All animal care and treatments were conducted in accordance with the Guidelines for the Care and Use of Laboratory Animals established at the Central Research Laboratory, Zenyaku Kogyo Co., Ltd.

With `O=C1N=C2C=CC=CN2C12Cc1ccccc1C2` [compound 1, spiro[imidazo[1,2-a]pyridin-2(3H)-one-3,2′-indan]], the step-through latency entry in experiment [1] (compound 1 0.0001 mg/kg p.o. 60 min before acquisition, scopolamine 1 mg/kg i.p., retention trial 24 h, vs 1% CMC + scopolamine) was “did not significantly prolong”; in experiment [1] (compound 1 0.001 mg/kg p.o., scopolamine 1 mg/kg i.p., vs 1% CMC + scopolamine, P<0.05), “prolonged”. Further, the “extracellular level of ACh in the hippocampus” value in experiment [2] (compound 1 0.001 mg/kg p.o.) is listed as “did not significantly increase”.
Take `COc1cc2c(cc1OC)C(=O)C(CC1CCN(Cc3ccccc3)CC1)C2` (stereo not shown) [donepezil]: the step-through latency result in experiment [1] (donepezil 0.01 mg/kg p.o., scopolamine 1 mg/kg i.p., vs 1% CMC + scopolamine) was “did not significantly prolong”; in experiment [1] (donepezil 0.1 mg/kg p.o., scopolamine 1 mg/kg i.p., vs 1% CMC + scopolamine, P<0.05), “prolonged”. For the same compound, the “extracellular level of ACh in the hippocampus” value in experiment [2] (donepezil 1 mg/kg p.o.) is reported as “did not significantly increase”.
Take `CN1[C@@H]2C[C@@H](OC(=O)[C@H](CO)c3ccccc3)C[C@H]1[C@@H]1O[C@@H]12` [scopolamine]: the step-through latency result in experiment [1] (1% CMC + scopolamine 1 mg/kg i.p. vs 1% CMC + saline control, P<0.01) is listed as “markedly shorter”.
